Results taken from PMC6001238, “Iterative Chemical Engineering of Vancomycin Leads to Novel Vancomycin Analogs With a High in Vitro Therapeutic Index” (Frontiers in Microbiology, 2018).
Converted amounts (≈) assume the structure as drawn.

How the values were obtained:
E. faecalis VSE 1 = assay: MIC, broth microdilution, vancomycin-sensitive E. faecalis (VSE 1); format: cell-based, Enterococcus faecalis; conditions: for MIC: Enterococcus faecalis VSE 1 (vancomycin-sensitive), read-out: MIC; for MIC-fold improvement vs. vancomycin: VSE 1, ratio of MIC of vancomycin and MIC of analogue
Method: (§1) The minimum inhibitory concentration (MIC) was determined using the broth microdilution method according to the antimicrobial susceptibility testing standards of the clinical and laboratory standards institute ([Clinical and Laboratory Standards Institute [CLSI], 2012]). Ultrapure water and non-inoculated broth were used as controls. In one case, a final concentration of 10 μM vancomycin was included with the vancomycin analog or control antibiotic.

E. faecalis VRE 6 = assay: MIC, broth microdilution, vancomycin-resistant E. faecalis VRE 6 (VanA); format: cell-based, Enterococcus faecalis; conditions: for MIC: Enterococcus faecalis VRE 6 (vancomycin-resistant), read-out: MIC; for MIC-fold improvement vs. vancomycin: VRE 6, ratio of MIC of vancomycin and MIC of analogue
Method: as §1

E. faecalis VRE 53 = assay: MIC, broth microdilution, vancomycin-resistant E. faecalis VRE 53 (VanA); format: cell-based, Enterococcus faecalis; conditions: for MIC: Enterococcus faecalis VRE 53 (vancomycin-resistant), read-out: MIC; for MIC-fold improvement vs. vancomycin: VRE 53, ratio of MIC of vancomycin and MIC of analogue
Method: as §1

E. faecalis VRE 29 = assay: MIC, broth microdilution, vancomycin-resistant E. faecalis VRE 29 (VanA); format: cell-based, Enterococcus faecalis; conditions: for MIC: Enterococcus faecalis VRE 29 (vancomycin-resistant), read-out: MIC; for MIC-fold improvement vs. vancomycin: VRE 29, ratio of MIC of vancomycin and MIC of analogue
Method: as §1

E. faecalis VRE 37 = assay: MIC, broth microdilution, vancomycin-resistant E. faecalis VRE 37 (VanA); format: cell-based, Enterococcus faecalis; conditions: for MIC: Enterococcus faecalis VRE 37 (vancomycin-resistant), read-out: MIC; for MIC-fold improvement vs. vancomycin: VRE 37, ratio of MIC of vancomycin and MIC of analogue
Method: as §1

[1] = system: Murine leukemia (L1210) cells; assay: Cytostatic activity, L1210 cell proliferation; format: cell-based; conditions: mean ± SD of three experiments; highest concentration tested 250 µM; 2 days; read-out: Toxicity (IC50) L1210
Method: (§2) Murine leukemia (L1210), human T-lymphocyte (CEM) and the human cervix carcinoma (HeLa) cell line were suspended at 300,000–500,000 cells/mL of culture medium, and 100 μL of a cell suspension was added to 100 μL of an appropriate dilution of the test compounds in wells of 96-well microtiter plates. After incubation at 37°C for 2 (L1210), 3 (CEM), or 4 (HeLa) days, the cell number was determined using a Coulter counter. The IC50 was defined per cell type as the compound concentration required to inhibit cell proliferation by 50% compared to the negative control ([Glowacka et al., 2017]).

[2] = system: human T-lymphocyte (CEM) cells; assay: Cytostatic activity, CEM cell proliferation; format: cell-based; conditions: mean ± SD of three experiments; highest concentration tested 250 µM; 3 days; read-out: Toxicity (IC50) CEM
Method: as §2

[3] = system: human cervix carcinoma (HeLa) cells; assay: Cytostatic activity, HeLa cell proliferation; format: cell-based; conditions: mean ± SD of three experiments; highest concentration tested 250 µM; 4 days; read-out: Toxicity (IC50) HeLa
Method: as §2

[4] = system: L1210, CEM and HeLa cell lines; assay: Cytostatic activity, average or summary over L1210, CEM and HeLa; format: cell-based; conditions: average of L1210, CEM and HeLa; read-out: Toxicity (IC50) Average
Method: as §2

[5] = system: S. aureus VSSA (ATCC 6538); assay: MIC, broth microdilution, vancomycin-sensitive S. aureus (VSSA/MSSA, ATCC 6538); format: cell-based, Staphylococcus aureus; conditions: for MIC: Staphylococcus aureus VSSA, read-out: MIC; for MIC-fold improvement vs. vancomycin: VSSA, ratio of MIC of vancomycin and MIC of analogue
Method: as §1

S. aureus VISA/HIP5827 = assay: MIC, broth microdilution, vancomycin-intermediate S. aureus VISA HIP5827; format: cell-based, Staphylococcus aureus; conditions: for MIC: Staphylococcus aureus VISA/HIP5827, read-out: MIC; for MIC-fold improvement vs. vancomycin: VISA/HIP5827, ratio of MIC of vancomycin and MIC of analogue
Method: as §1

S. aureus VRSA = assay: MIC, broth microdilution, vancomycin-resistant S. aureus (VRSA); format: cell-based, Staphylococcus aureus; conditions: for MIC: Staphylococcus aureus VRSA, read-out: MIC; for MIC-fold improvement vs. vancomycin: VRSA, ratio of MIC of vancomycin and MIC of analogue
Method: as §1

MRSA KS2 = assay: MIC, broth microdilution, MRSA KS2; format: cell-based, Staphylococcus aureus; conditions: for MIC-fold improvement vs. vancomycin: MRSA KS2, ratio of MIC of vancomycin and MIC of analogue; for MIC: Staphylococcus aureus MRSA KS2, read-out: MIC
Method: as §1

MRSA KS6 = assay: MIC, broth microdilution, MRSA KS6; format: cell-based, Staphylococcus aureus; conditions: for MIC-fold improvement vs. vancomycin: MRSA KS6, ratio of MIC of vancomycin and MIC of analogue; for MIC: Staphylococcus aureus MRSA KS6, read-out: MIC
Method: as §1

MRSA KS89 = assay: MIC, broth microdilution, MRSA KS89; format: cell-based, Staphylococcus aureus; conditions: for MIC-fold improvement vs. vancomycin: MRSA KS8, ratio of MIC of vancomycin and MIC of analogue; for MIC: Staphylococcus aureus MRSA KS8, read-out: MIC
Method: as §1

MRSA KS1 = assay: MIC, broth microdilution, MRSA KS1; format: cell-based, Staphylococcus aureus; conditions: for MIC-fold improvement vs. vancomycin: MRSA KS1, ratio of MIC of vancomycin and MIC of analogue; for MIC: Staphylococcus aureus MRSA KS1, read-out: MIC
Method: as §1

Compound	MIC (E. faecalis VSE 1)	MIC-fold improvement vs. vancomycin (E. faecalis VSE 1)	MIC (E. faecalis VRE 6)	MIC-fold improvement vs. vancomycin (E. faecalis VRE 6)	MIC (E. faecalis VRE 53)	MIC-fold improvement vs. vancomycin (E. faecalis VRE 53)	MIC (E. faecalis VRE 29)	MIC-fold improvement vs. vancomycin (E. faecalis VRE 29)	MIC (E. faecalis VRE 37)	IC50 [1]	IC50 [2]	IC50 [3]	IC50 [4]	MIC [5]	MIC-fold improvement vs. vancomycin [5]	MIC (S. aureus VISA/HIP5827)	MIC-fold improvement vs. vancomycin (S. aureus VISA/HIP5827)	MIC (S. aureus VRSA)	MIC-fold improvement vs. vancomycin (S. aureus VRSA)	MIC-fold improvement vs. vancomycin (MRSA KS2)	other results
CN[C@H](CC(C)C)C(=O)N[C@H]1C(=O)N[C@@H](CC(N)=O)C(=O)N[C@H]2C(=O)N[C@H]3C(=O)N[C@H](C(=O)N[C@H](C(=O)NCC(=O)Nc4c(C)cc(C)cc4C)c4cc(O)cc(O)c4-c4cc3ccc4O)[C@H](O)c3ccc(c(Cl)c3)Oc3cc2cc(c3O[C@@H]2O[C@H](CO)[C@@H](O)[C@H](O)[C@H]2O[C@H]2C[C@](C)(N)[C@H](O)[C@H](C)O2)Oc2ccc(cc2Cl)[C@H]1O [Vanc-9]	0.78 µM (≈ 1.27 µg/mL)	2	6.25 µM (≈ 10.1 µg/mL)	32	25 µM (≈ 40.6 µg/mL)	16	25 µM (≈ 40.6 µg/mL)	16	25 µM (≈ 40.6 µg/mL)	> 250 µM	240 ± 14 µM	83 ± 5 µM	191 µM	0.78 µM (≈ 1.27 µg/mL)	1	1.56 µM (≈ 2.53 µg/mL)	4	25 µM (≈ 40.6 µg/mL)	4	1	MIC (MRSA KS2): 0.78 µM (≈ 1.27 µg/mL); MIC-fold improvement vs. vancomycin (MRSA KS6): 1; MIC (MRSA KS6): 0.78 µM (≈ 1.27 µg/mL); MIC-fold improvement vs. vancomycin (MRSA KS89): 1; MIC (MRSA KS89): 0.78 µM (≈ 1.27 µg/mL); MIC-fold improvement vs. vancomycin (MRSA KS1): 1; MIC (MRSA KS1): 0.78 µM (≈ 1.27 µg/mL)
CN[C@H](CC(C)C)C(=O)N[C@H]1C(=O)N[C@@H](CC(N)=O)C(=O)N[C@H]2C(=O)N[C@H]3C(=O)N[C@H](C(=O)N[C@H](C(=O)NCC(=O)Nc4cccc(F)c4)c4cc(O)cc(O)c4-c4cc3ccc4O)[C@H](O)c3ccc(c(Cl)c3)Oc3cc2cc(c3O[C@@H]2O[C@H](CO)[C@@H](O)[C@H](O)[C@H]2O[C@H]2C[C@](C)(N)[C@H](O)[C@H](C)O2)Oc2ccc(cc2Cl)[C@H]1O [Vanc-10]	0.78 µM (≈ 1.25 µg/mL)	2	6.25 µM (≈ 10 µg/mL)	32	12.5 µM (≈ 20 µg/mL)	32	12.5 µM (≈ 20 µg/mL)	32	12.5 µM (≈ 20 µg/mL)	> 250 µM	> 250 µM	214 ± 51 µM	238 µM	0.78 µM (≈ 1.25 µg/mL)	1	0.78 µM (≈ 1.25 µg/mL)	8	12.5 µM (≈ 20 µg/mL)	8	2	MIC-fold improvement vs. vancomycin (E. faecalis VRE 37): 64; MIC (MRSA KS2): 0.39 µM (≈ 0.624 µg/mL); MIC-fold improvement vs. vancomycin (MRSA KS6): 1; MIC (MRSA KS6): 0.78 µM (≈ 1.25 µg/mL); MIC-fold improvement vs. vancomycin (MRSA KS89): 2; MIC (MRSA KS89): 0.39 µM (≈ 0.624 µg/mL); MIC-fold improvement vs. vancomycin (MRSA KS1): 2; MIC (MRSA KS1): 0.39 µM (≈ 0.624 µg/mL)
CN[C@H](CC(C)C)C(=O)N[C@H]1C(=O)N[C@@H](CC(N)=O)C(=O)N[C@H]2C(=O)N[C@H]3C(=O)N[C@H](C(=O)N[C@H](C(=O)NCC(=O)Nc4cc(C)cc(C)c4)c4cc(O)cc(O)c4-c4cc3ccc4O)[C@H](O)c3ccc(c(Cl)c3)Oc3cc2cc(c3O[C@@H]2O[C@H](CO)[C@@H](O)[C@H](O)[C@H]2O[C@H]2C[C@](C)(N)[C@H](O)[C@H](C)O2)Oc2ccc(cc2Cl)[C@H]1O [Vanc-11]	0.39 µM (≈ 0.628 µg/mL)	4	3.13 µM (≈ 5.04 µg/mL)	64	12.5 µM (≈ 20.1 µg/mL)	32	6.25 µM (≈ 10.1 µg/mL)	32	12.5 µM (≈ 20.1 µg/mL)	> 250 µM	196 ± 15 µM	87 ± 9 µM	178 µM	0.78 µM (≈ 1.26 µg/mL)	1	0.78 µM (≈ 1.26 µg/mL)	8	12.5 µM (≈ 20.1 µg/mL)	8	1	MIC-fold improvement vs. vancomycin (E. faecalis VRE 37): 64; MIC (MRSA KS2): 0.78 µM (≈ 1.26 µg/mL); MIC-fold improvement vs. vancomycin (MRSA KS6): 2; MIC (MRSA KS6): 0.39 µM (≈ 0.628 µg/mL); MIC-fold improvement vs. vancomycin (MRSA KS89): 2; MIC (MRSA KS89): 0.39 µM (≈ 0.628 µg/mL); MIC-fold improvement vs. vancomycin (MRSA KS1): 1; MIC (MRSA KS1): 0.78 µM (≈ 1.26 µg/mL)
